Experimental data: article PMC6941172 (Journal of medicinal chemistry, 2018)
“Also recorded” adds a separate entry of the source.

Columns and labels:
[1] = Microsomal stability assay, mouse liver microsomes; type: in vitro ADME; conditions: for Increase in half-life (MLM) relative to parent ligand: vs respective parent (8a, 8i, 8n or 8k)
[2] = Microsomal stability assay, human liver microsomes; type: in vitro ADME; conditions: for Increase in half-life (HLM) relative to parent ligand: vs respective parent (8a, 8i, 8n or 8k)
[3] = Pharmacokinetic study, IP 10 mg/kg, plasma and brain; type: in vivo, rat; conditions: rats
HEPG2 (liver) cells = assay: Cytotoxicity assay; type: cell-based, human; conditions: HEPG2, up to 400 μM, 48 hours
HEK293 (kidney) cells = assay: Cytotoxicity assay; type: cell-based, human; conditions: HEK293, up to 400 μM, 48 hours
GABAAR α6β3γ2 subtype = GABAAR α6β3γ2 subtype (Rattus norvegicus, UniProt P18508+P30191+P63079); assay: Electrophysiological assay in Xenopus oocytes, modulation of GABA EC3 currents; type: cell-based
Sequence of GABAAR α6β3γ2 subtype (P30191 20-453): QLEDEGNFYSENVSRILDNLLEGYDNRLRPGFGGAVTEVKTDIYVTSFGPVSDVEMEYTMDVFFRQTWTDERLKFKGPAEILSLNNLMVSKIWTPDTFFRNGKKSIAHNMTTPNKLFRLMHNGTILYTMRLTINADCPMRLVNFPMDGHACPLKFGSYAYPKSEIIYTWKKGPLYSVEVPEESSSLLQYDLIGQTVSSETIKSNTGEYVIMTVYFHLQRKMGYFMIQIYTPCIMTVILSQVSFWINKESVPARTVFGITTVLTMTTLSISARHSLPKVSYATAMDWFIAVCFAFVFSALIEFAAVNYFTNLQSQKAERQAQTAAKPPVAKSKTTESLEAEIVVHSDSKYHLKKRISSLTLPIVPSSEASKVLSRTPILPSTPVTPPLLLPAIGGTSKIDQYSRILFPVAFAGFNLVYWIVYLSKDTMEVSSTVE
Sequence of GABAAR α6β3γ2 subtype (P63079 26-473): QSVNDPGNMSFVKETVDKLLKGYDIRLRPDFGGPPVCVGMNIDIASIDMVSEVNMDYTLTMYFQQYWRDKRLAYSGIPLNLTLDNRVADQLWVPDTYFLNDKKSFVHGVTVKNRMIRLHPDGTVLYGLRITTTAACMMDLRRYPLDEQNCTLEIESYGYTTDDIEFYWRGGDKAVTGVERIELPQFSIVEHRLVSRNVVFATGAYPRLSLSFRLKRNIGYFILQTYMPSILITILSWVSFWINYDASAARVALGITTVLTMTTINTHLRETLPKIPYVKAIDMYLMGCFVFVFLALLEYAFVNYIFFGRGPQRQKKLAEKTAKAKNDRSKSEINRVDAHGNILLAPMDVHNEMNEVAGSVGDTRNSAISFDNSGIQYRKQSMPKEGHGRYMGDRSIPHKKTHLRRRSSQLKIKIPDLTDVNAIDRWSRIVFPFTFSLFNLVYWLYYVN
Sequence of GABAAR α6β3γ2 subtype (P18508 39-466): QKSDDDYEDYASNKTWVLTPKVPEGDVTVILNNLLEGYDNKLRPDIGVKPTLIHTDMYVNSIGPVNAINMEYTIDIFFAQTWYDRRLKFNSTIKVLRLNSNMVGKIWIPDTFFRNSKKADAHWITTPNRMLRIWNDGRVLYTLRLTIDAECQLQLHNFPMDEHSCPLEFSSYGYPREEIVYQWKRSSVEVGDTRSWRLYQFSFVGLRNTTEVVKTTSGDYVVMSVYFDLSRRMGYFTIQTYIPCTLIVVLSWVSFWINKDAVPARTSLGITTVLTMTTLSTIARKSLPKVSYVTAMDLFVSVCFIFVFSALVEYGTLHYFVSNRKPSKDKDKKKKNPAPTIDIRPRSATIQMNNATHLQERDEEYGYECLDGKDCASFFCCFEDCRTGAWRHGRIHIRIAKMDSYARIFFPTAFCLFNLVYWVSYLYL

Compound	Increase in half-life (HLM) relative to parent ligand [2]	Cytotoxicity / cell viability (HEPG2 (liver) cells)	Cytotoxicity / cell viability (HEK293 (kidney) cells)	Efficacy / activity at the α6β3γ2 subtype (in words) (GABAAR α6β3γ2 subtype)	also measured
[2H]C([2H])([2H])Oc1ccc2c3nn(-c4ccc(OC)cc4)c(=O)c-3c[nH]c2c1 [Compound 8c, 7-Methoxy-d3-2-(4-methoxyphenyl)-2,5-dihydro-3H-pyrazolo[4,3-c]quinolin-3-one]	three-fold				Increase in half-life (MLM) relative to parent ligand [1]: four-fold; Brain concentration (Cmax) compared with parent 8a [3]: almost two-fold increase
[2H]C([2H])([2H])Oc1ccc(-n2nc3c4ccc(OC([2H])([2H])[2H])cc4[nH]cc-3c2=O)cc1 [Compound 8d, 7-Methoxy-d3-2-(4-methoxy-d3-phenyl)-2,5-dihydro-3H-pyrazolo[4,3-c]quinolin-3-one]					Brain concentration (Cmax) compared with parent 8a [3]: almost two-fold increase
[2H]C([2H])([2H])Oc1cccc(-n2nc3c4ccc(OC([2H])([2H])[2H])cc4[nH]cc-3c2=O)c1 [Compound 8e, 7-Methoxy-d3-2-(3-methoxy-d3-phenyl)-2,5-dihydro-3H-pyrazolo[4,3-c]quinolin-3-one]		no impact on cytotoxicity	no impact on cytotoxicity		
[2H]C([2H])([2H])Oc1ccc2c3nn(-c4ccccc4OC([2H])([2H])[2H])c(=O)c-3c[nH]c2c1 [Compound 8f, 7-Methoxy-d3-2-(2-methoxy-d3-phenyl)-2,5-dihydro-3H-pyrazolo[4,3-c]quinolin-3-one]		no impact on cytotoxicity	no impact on cytotoxicity		
[2H]C([2H])([2H])Oc1ccc(-n2nc3c4ccc(Br)cc4[nH]cc-3c2=O)cc1 [Compound 8o, 7-Bromo-2-(4-methoxy-d3-phenyl)-2,5-dihydro-3H-pyrazolo[4,3-c]quinolin-3-one]	two-fold			efficacies comparable to 8n	Increase in MLM-mediated half-life ([1]; vs parent 8n): 20%
[2H]C([2H])([2H])Oc1ccc(-n2nc3c4ccc(OC)cc4[nH]cc-3c2=O)cn1 [Compound 13b, 7-Methoxy-2-(6-methoxy-d3-pyridin-3-yl)-2,5-dihydro-3H-pyrazolo[4,3-c]quinolin-3-one]				retained some efficacy	
[2H]C([2H])([2H])Oc1ccc(-n2nc3c4cc(Cl)ccc4[nH]cc-3c2=O)cn1 [Compound 13f, 8-Chloro-2-(6-methoxy-d3-pyridin-3-yl)-2,5-dihydro-3H-pyrazolo[4,3-c]quinolin-3-one]				much poorer efficacy	Increased half-life (HLM) ([2]; vs OCH3 N-hetero ligand 13e): 40%
COc1ccc(-n2nc3c4ccc(Br)cc4[nH]cc-3c2=O)cn1 [Compound 13g, 7-Bromo-2-(6-methoxypyridin-3-yl)-2,5-dihydro-3H-pyrazolo[4,3-c]quinolin-3-one]	seven-fold	no impact of cell viability	no impact of cell viability		Increase in half-life (MLM) relative to parent ligand [1]: seven-fold
[2H]C([2H])([2H])Oc1ccc(-n2nc3c4ccc(Br)cc4[nH]cc-3c2=O)cn1 [Compound 13h, 7-Bromo-2-(6-methoxy-d3-pyridin-3-yl)-2,5-dihydro-3H-pyrazolo[4,3-c]quinolin-3-one]				retained some efficacy; also recorded: efficacies comparable to 8n	Increase in stability in MLM ([1]; vs 8o): 30 fold; Increased stability (MLM half-life) ([1]; vs OCH3 N-hetero ligand 13g): six-fold; Increase in metabolic stability in HLM ([2]; vs 8o): 11 fold; Increased stability (HLM half-life) ([2]; vs OCH3 N-hetero ligand 13g): three-fold
COc1ccc(-n2nc3c4cnc(OC)cc4[nH]cc-3c2=O)cc1 [Compound 13i, 7-Methoxy-2-(4-methoxyphenyl)-2,5-dihydro-3H-pyrazolo[4,3-c][1,6]naphthyridin-3-one]				retained some efficacy	
